Data taken from patent US20250221953A1 (The University of Chicago, priority 2022, published 2025).

System: Jurkat T cells
Format: cell-based, human
Conditions: IL-2 production level in treated group compared to control group; 48 hours treatment, then anti-CD3/anti-CD28 12 hours
Description: Two preliminary screens were designed and performed.
To construct “blood chemical compound library for cell-based screening purposes, components such as antibodies that are difficult to distinguish due to a wide variety, and some supplements that only function at a whole organism level including fish oils and herbs were excluded. Physiological ranges of serum levels of individual blood chemicals are available in the human metabolome database (https://hmdb.ca/) and applied in the experimental design. For first screen 1a, Jurkat T cells were treated with blood chemical library for 48 hours and then activated with 2.5 μg/mL anti-CD3 and 0.5 μg/mL anti-CD28 antibodies for another 12 hours, followed by measurement of IL-2 level in medium supernatant using ELISA kit (Biolegend). For first screen 1b, 1×10^5 PD-1^+ Jurkat T cells were co-cultured with 2×10^4 H596 (PD-L1^+) cells in a well of 96-well plate for 60 hours, and then activated with 2.5 μg/mL anti-CD3 and 0.5 μg/mL anti-CD28 antibodies for another 12 hours, followed by measurement of IL-2 level in medium supernatant using ELISA kit. Please also refer to Resources Table and Table 1-2 for more details.

Compound	Relative changed percentage (%)
N[C@@H](CC(=O)[O-])C(=O)[O-].[K+].[K+] [L-Aspartic acid potassium salt]	4.421
O=C([O-])CC(O)(CC(=O)[O-])C(=O)[O-].O=C([O-])CC(O)(CC(=O)[O-])C(=O)[O-].[Zn+2].[Zn+2].[Zn+2] [Zinc Citrate]	−2.073
O=P([O-])([O-])O.[K+].[K+] [Dipotassium Phosphate]	−5.393
CCCCCCCCCCCCCC(=O)O [Myristic Acid]	−17.39
[Cl][Cr]([Cl])[Cl] [Chromium Chloride]	−35.28
O=C([O-])O.[Na+] [SODIUM BICARBONATE]	50.35
O=S(=O)([O-])[O-].[Na+].[Na+] [SODIUM SULFATE]	38.99
Cc1ncc(C[n+]2csc(CCOP(=O)(O)OP(=O)(O)O)c2C)c(N)n1 [TIIIAMINE PYROPIIOSPIIATE]	9.753
CC(=O)[C@@]1(O)CC[C@H]2[C@@H]3CCC4=CC(=O)CC[C@]4(C)[C@H]3CC[C@@]21C [17A-HYDROXYPROGESTERONE]	41.36
Chondroitin sulfate sodium	−11.46
COC1=C(OC)C(=O)C(C/C=C(\C)CC/C=C(\C)CC/C=C(\C)CC/C=C(\C)CC/C=C(\C)CC/C=C(\C)CC/C=C(\C)CC/C=C(\C)CC/C=C(\C)CCC=C(C)C)=C(C)C1=O [CoQ-10]	26.54
CCCCC/C=C\C/C=C\C/C=C\CCCCC(=O)O [Gamma linolenic acid]	9.058
O[C@H]1[C@H](O)[C@@H](O)[C@H](O)[C@@H](O)[C@H]1O [Inositol]	15.38
N[C@@H](CC(=O)O)C(=O)O [L-Aspartic Acid]	−9.615
O=C(O)[C@@H]1CCCN1 [L-Proline]	−3.935
O=C1O[C@H]([C@@H](O)CO)C(O)=C1O [L-ASCORBIC ACID]	14.49
N[C@@H](CSSC[C@H](N)C(=O)O)C(=O)O [L-Cystine]	−19.73
CELLULOSE FIBROUS	−13.2

Compound	Relative changed percentage (%)
Bilirubin Mixed Isomers	−37.62
Cc1cc(O)cc2c1O[C@](C)(CCC[C@H](C)CCC[C@H](C)CCCC(C)C)CC2 [(+)-DELTA-TOCOPHEROL]	41.42
[S]=[Pb] [LEAD(II) SULFIDE]	−13.63
Cc1ncc(CO)c(CO)c1O [PYRIDOXINE]	11.1111
PROINSULIN C-PEPTIDE (55-89) [PROINSULIN C-PEPTIDE (55-89)/c-peptide]	17.8836
N[C@@H](CCC(=O)N[C@@H](CS)C(=O)NCC(=O)O)C(=O)O [L-GLUTATHIONE REDUCED]	48.28
CC(C)CCCC(C)CCCC(C)CCCC(C)CC(=O)O (centres unmarked) [PHYTANIC ACID]	−18.61
N=C(N)NCCC[C@H](N)C(=O)O [L-Arginine]	10.75
C[C@]12CC[C@@H]3c4ccc(O)cc4CC[C@H]3[C@@H]1CCC2=O [ESTRONE]	25.0199
CC1=C(C/C=C(\C)CCC[C@H](C)CCC[C@H](C)CCCC(C)C)C(=O)c2ccccc2C1=O [VITAMIN K1]	10.13
OC[C@H]1O[C@@H](Oc2c[nH]c3ccccc23)[C@H](O)[C@@H](O)[C@@H]1O [INDOXYL beta-D-GLUCOSIDE]	30.46
Zinc Picolinate	5.492
O=C(O)CCCCC1CCSS1 (stereo not drawn) [alpha-lipoic acid]	54.62
ADENINE DI[…] SALT HYDRAT	−0.3704
ARG8-VASOPRESSIN ACETATE SALT	−7.61
[Cl-].[Na+] [SODIUM CHLORIDE]	36.53
NC(=O)C[C@H](N)C(=O)O [L-Asparagine]	28.4787
